Laboratory results: publication PMC7145717, “A nucleotide-dependent oligomerization of the Escherichia coli replication initiator DnaA requires residue His136 for remodeling of the chromosomal origin” (Nucleic Acids Research, 2019)

What was measured:
[1] = biological target: T1, DnaA (Escherichia coli replication initiator DnaA) (Escherichia coli, UniProt P03004, Q156N); test: nitrocellulose filter retention assay; details: read-out: K D (ATP binding)
T1 construct: full-length, residues 1-467, 10X-histidine-tagged, recombinant from plasmid pZL411, Ni-NTA purified (SAXS samples also Sephacryl-300 gel filtration), ~52 kDa monomer
T1 sequence (P03004 1-467 Q156N): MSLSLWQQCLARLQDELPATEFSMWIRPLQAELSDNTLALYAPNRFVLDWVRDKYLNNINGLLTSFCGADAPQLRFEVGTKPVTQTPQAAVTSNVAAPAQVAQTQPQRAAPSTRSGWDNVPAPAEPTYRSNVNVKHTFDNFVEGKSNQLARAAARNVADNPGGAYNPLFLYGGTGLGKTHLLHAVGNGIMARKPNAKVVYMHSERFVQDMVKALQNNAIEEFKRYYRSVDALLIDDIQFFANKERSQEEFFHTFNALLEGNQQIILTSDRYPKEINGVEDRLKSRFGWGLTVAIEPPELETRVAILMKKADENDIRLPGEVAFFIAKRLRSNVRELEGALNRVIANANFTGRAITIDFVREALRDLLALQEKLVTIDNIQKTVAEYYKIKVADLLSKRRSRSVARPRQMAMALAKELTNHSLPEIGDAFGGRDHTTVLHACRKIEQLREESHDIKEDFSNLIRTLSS
From the text: (§1) nitrocellulose filter retention assay on DnaA (Escherichia coli replication initiator DnaA)

[2] = biological target: T2, DnaA (Escherichia coli replication initiator DnaA) (Escherichia coli, UniProt P03004); test: nitrocellulose filter retention assay; details: read-out: K D (ATP binding)
T2 construct: full-length, residues 1-467, 10X-histidine-tagged, recombinant from plasmid pZL411, Ni-NTA purified (SAXS samples also Sephacryl-300 gel filtration), ~52 kDa monomer
T2 sequence (P03004 1-467): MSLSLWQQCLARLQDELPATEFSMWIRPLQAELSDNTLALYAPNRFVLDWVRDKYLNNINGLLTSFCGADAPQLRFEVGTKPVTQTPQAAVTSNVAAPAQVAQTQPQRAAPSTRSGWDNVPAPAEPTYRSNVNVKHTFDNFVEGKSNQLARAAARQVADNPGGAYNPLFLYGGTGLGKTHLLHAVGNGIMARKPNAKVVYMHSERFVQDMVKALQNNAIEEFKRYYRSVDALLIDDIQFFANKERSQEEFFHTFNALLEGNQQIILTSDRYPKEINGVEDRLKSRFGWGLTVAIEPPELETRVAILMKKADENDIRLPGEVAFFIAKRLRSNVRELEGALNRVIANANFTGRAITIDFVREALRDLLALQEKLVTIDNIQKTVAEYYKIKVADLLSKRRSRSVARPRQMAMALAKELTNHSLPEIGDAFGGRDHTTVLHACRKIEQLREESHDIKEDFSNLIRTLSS
From the text: as §1

[3] = biological target: T3, DnaA (Escherichia coli replication initiator DnaA) (Escherichia coli, UniProt P03004, Q156E); test: nitrocellulose filter retention assay; details: read-out: K D (ATP binding)
T3 construct: full-length, residues 1-467, 10X-histidine-tagged, recombinant from plasmid pZL411, Ni-NTA purified (SAXS samples also Sephacryl-300 gel filtration), ~52 kDa monomer
T3 sequence (P03004 1-467 Q156E): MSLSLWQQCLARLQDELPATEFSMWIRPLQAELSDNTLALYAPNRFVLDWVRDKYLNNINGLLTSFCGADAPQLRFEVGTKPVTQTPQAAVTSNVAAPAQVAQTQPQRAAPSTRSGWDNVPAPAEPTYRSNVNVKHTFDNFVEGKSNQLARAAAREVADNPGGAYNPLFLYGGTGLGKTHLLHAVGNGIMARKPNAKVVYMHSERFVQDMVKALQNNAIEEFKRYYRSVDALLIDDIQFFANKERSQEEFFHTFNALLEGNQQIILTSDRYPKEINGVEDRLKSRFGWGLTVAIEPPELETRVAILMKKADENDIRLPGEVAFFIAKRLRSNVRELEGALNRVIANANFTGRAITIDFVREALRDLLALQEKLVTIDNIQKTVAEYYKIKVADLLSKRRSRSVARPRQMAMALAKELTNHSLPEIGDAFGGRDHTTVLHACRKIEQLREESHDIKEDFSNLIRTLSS
From the text: as §1

[4] = biological target: T4, DnaA (Escherichia coli replication initiator DnaA) (Escherichia coli, UniProt P03004, F76Y); test: nitrocellulose filter retention assay; details: read-out: K D (ATP binding)
T4 construct: full-length, residues 1-467, 10X-histidine-tagged, recombinant from plasmid pZL411, Ni-NTA purified (SAXS samples also Sephacryl-300 gel filtration), ~52 kDa monomer
T4 sequence (P03004 1-467 F76Y): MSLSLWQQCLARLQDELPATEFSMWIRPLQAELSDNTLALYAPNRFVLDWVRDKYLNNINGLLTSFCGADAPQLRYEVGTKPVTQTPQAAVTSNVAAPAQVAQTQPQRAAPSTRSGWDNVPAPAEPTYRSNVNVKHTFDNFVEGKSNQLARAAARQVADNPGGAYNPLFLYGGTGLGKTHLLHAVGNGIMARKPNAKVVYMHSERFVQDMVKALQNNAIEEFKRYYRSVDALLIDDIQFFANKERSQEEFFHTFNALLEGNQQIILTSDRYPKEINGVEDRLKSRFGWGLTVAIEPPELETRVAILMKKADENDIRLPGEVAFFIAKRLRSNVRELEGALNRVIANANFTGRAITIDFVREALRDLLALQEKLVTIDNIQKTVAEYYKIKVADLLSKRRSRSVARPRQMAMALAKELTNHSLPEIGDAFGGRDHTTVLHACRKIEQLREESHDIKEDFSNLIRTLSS
From the text: as §1

[5] = biological target: T5, DnaA (Escherichia coli replication initiator DnaA) (Escherichia coli, UniProt P03004, F76A); test: nitrocellulose filter retention assay; details: read-out: K D (ATP binding)
T5 construct: full-length, residues 1-467, 10X-histidine-tagged, recombinant from plasmid pZL411, Ni-NTA purified (SAXS samples also Sephacryl-300 gel filtration), ~52 kDa monomer
T5 sequence (P03004 1-467 F76A): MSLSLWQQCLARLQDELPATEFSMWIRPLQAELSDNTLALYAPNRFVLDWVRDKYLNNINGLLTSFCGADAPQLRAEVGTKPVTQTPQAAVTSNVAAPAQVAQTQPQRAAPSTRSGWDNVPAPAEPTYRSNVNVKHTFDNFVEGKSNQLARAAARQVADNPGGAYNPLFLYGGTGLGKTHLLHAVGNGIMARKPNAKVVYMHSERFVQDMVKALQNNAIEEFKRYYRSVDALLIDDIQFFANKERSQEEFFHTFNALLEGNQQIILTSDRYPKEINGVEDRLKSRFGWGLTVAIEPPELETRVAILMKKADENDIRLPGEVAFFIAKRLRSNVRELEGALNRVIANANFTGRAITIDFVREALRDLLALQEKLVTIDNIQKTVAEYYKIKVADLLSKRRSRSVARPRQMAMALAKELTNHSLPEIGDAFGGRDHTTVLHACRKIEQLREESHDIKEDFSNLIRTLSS
From the text: as §1

[6] = biological target: T6, DnaA (Escherichia coli replication initiator DnaA) (Escherichia coli, UniProt P03004, H136Q); test: nitrocellulose filter retention assay; details: read-out: K D (ATP binding)
T6 construct: full-length, residues 1-467, 10X-histidine-tagged, recombinant from plasmid pZL411, Ni-NTA purified (SAXS samples also Sephacryl-300 gel filtration), ~52 kDa monomer
T6 sequence (P03004 1-467 H136Q): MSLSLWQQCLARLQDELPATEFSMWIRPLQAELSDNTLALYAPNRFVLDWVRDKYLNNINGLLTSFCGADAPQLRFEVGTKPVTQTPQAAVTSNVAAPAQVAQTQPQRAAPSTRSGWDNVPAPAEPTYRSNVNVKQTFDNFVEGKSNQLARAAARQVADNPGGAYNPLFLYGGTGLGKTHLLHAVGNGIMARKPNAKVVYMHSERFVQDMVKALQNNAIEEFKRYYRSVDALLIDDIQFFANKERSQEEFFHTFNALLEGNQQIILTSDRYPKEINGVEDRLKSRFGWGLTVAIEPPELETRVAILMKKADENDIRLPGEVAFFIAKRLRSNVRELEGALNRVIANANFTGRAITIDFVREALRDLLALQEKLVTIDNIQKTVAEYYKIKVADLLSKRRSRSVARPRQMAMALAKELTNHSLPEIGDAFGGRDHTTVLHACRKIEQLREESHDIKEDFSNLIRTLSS
From the text: as §1

[7] = biological target: T7, DnaA (Escherichia coli replication initiator DnaA) (Escherichia coli, UniProt P03004, H136A); test: nitrocellulose filter retention assay; details: read-out: K D (ATP binding)
T7 construct: full-length, residues 1-467, 10X-histidine-tagged, recombinant from plasmid pZL411, Ni-NTA purified (SAXS samples also Sephacryl-300 gel filtration), ~52 kDa monomer
T7 sequence (P03004 1-467 H136A): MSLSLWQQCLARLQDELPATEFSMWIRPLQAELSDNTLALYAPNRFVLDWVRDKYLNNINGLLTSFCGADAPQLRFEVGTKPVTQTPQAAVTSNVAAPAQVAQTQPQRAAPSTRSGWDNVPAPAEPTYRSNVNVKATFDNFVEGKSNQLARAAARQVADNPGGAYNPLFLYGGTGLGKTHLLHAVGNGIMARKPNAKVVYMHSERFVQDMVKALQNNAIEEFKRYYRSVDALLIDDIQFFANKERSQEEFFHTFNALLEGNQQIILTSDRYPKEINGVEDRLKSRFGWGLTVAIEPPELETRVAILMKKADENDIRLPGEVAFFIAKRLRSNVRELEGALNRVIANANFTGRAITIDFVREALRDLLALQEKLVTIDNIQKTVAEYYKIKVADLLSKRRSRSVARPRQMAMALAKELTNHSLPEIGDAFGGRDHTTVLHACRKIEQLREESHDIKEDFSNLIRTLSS
From the text: as §1

[8] = biological target: the molecule itself; test: cross-linking; amine-specific cross-linker DTSSP; apo or with 0.5 mM ADP, AMP-PNP or ATP; SDS-PAGE and western blot with anti-DnaA antibody

Nc1ncnc2c1ncn2[C@@H]1O[C@H](COP(=O)(O)OP(=O)(O)OP(=O)(O)O)[C@@H](O)[C@H]1O [ATP] showed a Kd [1] of 100 ± 20 nM, a Kd [2] of 110 ± 30 nM and a Kd [3] of 100 ± 20 nM. It also gave a Kd [4] of 140 ± 30 nM, a Kd [5] of 120 ± 30 nM and a Kd [6] of 100 ± 20 nM. For the same molecule, the Kd [7] was 140 ± 40 nM.

B1: DnaA(H136A) (natural protein, E. coli, UniProt P03004 1-467, looked up)
chain: MSLSLWQQCLARLQDELPATEFSMWIRPLQAELSDNTLALYAPNRFVLDWVRDKYLNNINGLLTSFCGADAPQLRFEVGTKPVTQTPQAAVTSNVAAPAQVAQTQPQRAAPSTRSGWDNVPAPAEPTYRSNVNVKATFDNFVEGKSNQLARAAARQVADNPGGAYNPLFLYGGTGLGKTHLLHAVGNGIMARKPNAKVVYMHSERFVQDMVKALQNNAIEEFKRYYRSVDALLIDDIQFFANKERSQEEFFHTFNALLEGNQQIILTSDRYPKEINGVEDRLKSRFGWGLTVAIEPPELETRVAILMKKADENDIRLPGEVAFFIAKRLRSNVRELEGALNRVIANANFTGRAITIDFVREALRDLLALQEKLVTIDNIQKTVAEYYKIKVADLLSKRRSRSVARPRQMAMALAKELTNHSLPEIGDAFGGRDHTTVLHACRKIEQLREESHDIKEDFSNLIRTLSS
notes: DnaA, E. coli, amino acid residues 1-467, with H136A; Made by site-directed mutagenesis on pZL411; also called ATP-DnaA(H136A)
B1: binds [8].
